# From patent publication US20260207623A1, “USE OF ESTETROL IN HEPATICALLY IMPAIRED PATIENTS” (ESTETRA SRL, priority 2022, published 2026)
# System: post-menopausal women
# Assay: Example 2 dose-finding study: Hot Flush Weekly Weighted Score
# Format: in vivo, human
# Method: Further, the terms “Hot Flush Weekly Weighted Score”, as used herein, corresponds to a score taking into account frequency and severity which is calculated by using the severity score (as calculated above): [(1×No. of mild VMS)+(2×No. of moderate VMS)+(3×No. of severe VMS)] during a 7 day period.
# All treatments (Estetrol, hereinafter E4 as monohydrate, [2.5 mg, 5 mg, 10 mg, 15 mg] capsule) were administered once daily (QD) per os for at least 12 consecutive weeks until the last biological assessments (Day 91 maximum) had been performed.
# A further analysis of the results was thus prepared, where data from these two doses were grouped with the placebo dose and compared to the 10 mg and 15 mg estetrol monohydrate doses.
smiles,measurement,setting,value
"C[C@]12CC[C@@H]3c4ccc(O)cc4CC[C@H]3[C@@H]1[C@@H](O)[C@@H](O)[C@@H]2O [E4 monohydrate, estetrol monohydrate]","Hot Flush Weekly Weighted Score, relative change (% from baseline), Mean","2.5 mg daily, week 0",0%
same,"Hot Flush Weekly Weighted Score, relative change (% from baseline), Mean","2.5 mg daily, week 1",−22%
same,"Hot Flush Weekly Weighted Score, relative change (% from baseline), Mean","2.5 mg daily, week 2",−32%
same,"Hot Flush Weekly Weighted Score, relative change (% from baseline), Mean","2.5 mg daily, week 3",−43%
same,"Hot Flush Weekly Weighted Score, relative change (% from baseline), Mean","2.5 mg daily, week 4",−47%
same,"Hot Flush Weekly Weighted Score, relative change (% from baseline), Mean","2.5 mg daily, week 5",−48%
same,"Hot Flush Weekly Weighted Score, relative change (% from baseline), Mean","2.5 mg daily, week 6",−51%
same,"Hot Flush Weekly Weighted Score, relative change (% from baseline), Mean","2.5 mg daily, week 7",−53%
same,"Hot Flush Weekly Weighted Score, relative change (% from baseline), Mean","2.5 mg daily, week 8",−55%
same,"Hot Flush Weekly Weighted Score, relative change (% from baseline), Mean","2.5 mg daily, week 9",−57%
same,"Hot Flush Weekly Weighted Score, relative change (% from baseline), Mean","2.5 mg daily, week 10",−57%
same,"Hot Flush Weekly Weighted Score, relative change (% from baseline), Mean","2.5 mg daily, week 11",−56%
same,"Hot Flush Weekly Weighted Score, relative change (% from baseline), Mean","2.5 mg daily, week 12",−57%
same,"Hot Flush Weekly Weighted Score, relative change (% from baseline), Mean","5 mg daily, week 0",0%
same,"Hot Flush Weekly Weighted Score, relative change (% from baseline), Mean","5 mg daily, week 1",−22%
same,"Hot Flush Weekly Weighted Score, relative change (% from baseline), Mean","5 mg daily, week 2",−32%
same,"Hot Flush Weekly Weighted Score, relative change (% from baseline), Mean","5 mg daily, week 3",−37%
same,"Hot Flush Weekly Weighted Score, relative change (% from baseline), Mean","5 mg daily, week 4",−43%
same,"Hot Flush Weekly Weighted Score, relative change (% from baseline), Mean","5 mg daily, week 5",−46%
same,"Hot Flush Weekly Weighted Score, relative change (% from baseline), Mean","5 mg daily, week 6",−56%
same,"Hot Flush Weekly Weighted Score, relative change (% from baseline), Mean","5 mg daily, week 7",−56%
same,"Hot Flush Weekly Weighted Score, relative change (% from baseline), Mean","5 mg daily, week 8",−56%
same,"Hot Flush Weekly Weighted Score, relative change (% from baseline), Mean","5 mg daily, week 9",−58%
same,"Hot Flush Weekly Weighted Score, relative change (% from baseline), Mean","5 mg daily, week 10",−59%
same,"Hot Flush Weekly Weighted Score, relative change (% from baseline), Mean","5 mg daily, week 11",−61%
same,"Hot Flush Weekly Weighted Score, relative change (% from baseline), Mean","5 mg daily, week 12",−60%
same,"Hot Flush Weekly Weighted Score, relative change (% from baseline), Mean","10 mg daily, week 0",0%
same,"Hot Flush Weekly Weighted Score, relative change (% from baseline), Mean","10 mg daily, week 0, section B analysis",0%
same,"Hot Flush Weekly Weighted Score, relative change (% from baseline), Mean","10 mg daily, week 1",−20%
same,"Hot Flush Weekly Weighted Score, relative change (% from baseline), Mean","10 mg daily, week 1, section B analysis",−20%
same,"Hot Flush Weekly Weighted Score, relative change (% from baseline), Mean","10 mg daily, week 2",−35%
same,"Hot Flush Weekly Weighted Score, relative change (% from baseline), Mean","10 mg daily, week 3",−47%
same,"Hot Flush Weekly Weighted Score, relative change (% from baseline), Mean","10 mg daily, week 4",−54%
same,"Hot Flush Weekly Weighted Score, relative change (% from baseline), Mean","10 mg daily, week 5",−58%
same,"Hot Flush Weekly Weighted Score, relative change (% from baseline), Mean","10 mg daily, week 7",−64%
same,"Hot Flush Weekly Weighted Score, relative change (% from baseline), Mean","10 mg daily, week 7, section B analysis",−64%
same,"Hot Flush Weekly Weighted Score, relative change (% from baseline), Mean","10 mg daily, week 8, section B analysis",−66%
same,"Hot Flush Weekly Weighted Score, relative change (% from baseline), Mean","10 mg daily, week 9",−67%
same,"Hot Flush Weekly Weighted Score, relative change (% from baseline), Mean","10 mg daily, week 9, section B analysis",−66%
same,"Hot Flush Weekly Weighted Score, relative change (% from baseline), Mean","10 mg daily, week 10, section B analysis",−68%
same,"Hot Flush Weekly Weighted Score, relative change (% from baseline), Mean","10 mg daily, week 11",−69%
same,"Hot Flush Weekly Weighted Score, relative change (% from baseline), Mean","10 mg daily, week 11, section B analysis",−68%
same,"Hot Flush Weekly Weighted Score, relative change (% from baseline), Mean","10 mg daily, week 12",−70%
same,"Hot Flush Weekly Weighted Score, relative change (% from baseline), Mean","10 mg daily, week 12, section B analysis",−69%
same,"Hot Flush Weekly Weighted Score, relative change (% from baseline), Mean","15 mg daily, week 0",0%
same,"Hot Flush Weekly Weighted Score, relative change (% from baseline), Mean","15 mg daily, week 0, section B analysis",0%
same,"Hot Flush Weekly Weighted Score, relative change (% from baseline), Mean","15 mg daily, week 1",−19%
same,"Hot Flush Weekly Weighted Score, relative change (% from baseline), Mean","15 mg daily, week 1, section B analysis",−22%
same,"Hot Flush Weekly Weighted Score, relative change (% from baseline), Mean","15 mg daily, week 2",−43%
same,"Hot Flush Weekly Weighted Score, relative change (% from baseline), Mean","15 mg daily, week 3, section B analysis",−56%
same,"Hot Flush Weekly Weighted Score, relative change (% from baseline), Mean","15 mg daily, week 4, section B analysis",−66%
same,"Hot Flush Weekly Weighted Score, relative change (% from baseline), Mean","15 mg daily, week 5, section B analysis",−70%
same,"Hot Flush Weekly Weighted Score, relative change (% from baseline), Mean","15 mg daily, week 6",−74%
same,"Hot Flush Weekly Weighted Score, relative change (% from baseline), Mean","15 mg daily, week 6, section B analysis",−72%
same,"Hot Flush Weekly Weighted Score, relative change (% from baseline), Mean","15 mg daily, week 8",−78%
same,"Hot Flush Weekly Weighted Score, relative change (% from baseline), Mean","15 mg daily, week 8, section B analysis",−76%
same,"Hot Flush Weekly Weighted Score, relative change (% from baseline), Mean","15 mg daily, week 9",−80%
same,"Hot Flush Weekly Weighted Score, relative change (% from baseline), Mean","15 mg daily, week 9, section B analysis",−78%
same,"Hot Flush Weekly Weighted Score, relative change (% from baseline), Mean","15 mg daily, week 10",−79%
same,"Hot Flush Weekly Weighted Score, relative change (% from baseline), Mean","15 mg daily, week 11",−80%
same,"Hot Flush Weekly Weighted Score, relative change (% from baseline), Mean","15 mg daily, week 11, section B analysis",−79%
same,"Hot Flush Weekly Weighted Score, relative change (% from baseline), Mean","15 mg daily, week 12",−82%
same,"Hot Flush Weekly Weighted Score, relative change (% from baseline), Mean","15 mg daily, week 12, section B analysis",−81%
